{
  "source": "patent US5672358A",
  "about": "(priority 1995, dated 1997)",
  "assay": "pH dependent solubility of drug or wax",
  "note": "“Also recorded” adds a separate entry of the source.",
  "data": [
    {"smiles": "COc1cc(Cc2cnc(N)nc2N)cc(OC)c1OC", "note": "[trimethoprim]", "values": [
      {"measurement": "solubility", "result": "more soluble at acidic pH values; also recorded: the solubility of the two drugs is pH dependent"}
    ]}
  ]
}
